The values that follow come from patent US8580823B2, “Piperidine renin inhibitors” (Vitae Pharmaceuticals, Inc., priority 2006, dated 2013).

Assay [1] addresses T1, trypsin-activated recombinant human renin (Homo sapiens, UniProt P00797).
T1 sequence (P00797 67-406): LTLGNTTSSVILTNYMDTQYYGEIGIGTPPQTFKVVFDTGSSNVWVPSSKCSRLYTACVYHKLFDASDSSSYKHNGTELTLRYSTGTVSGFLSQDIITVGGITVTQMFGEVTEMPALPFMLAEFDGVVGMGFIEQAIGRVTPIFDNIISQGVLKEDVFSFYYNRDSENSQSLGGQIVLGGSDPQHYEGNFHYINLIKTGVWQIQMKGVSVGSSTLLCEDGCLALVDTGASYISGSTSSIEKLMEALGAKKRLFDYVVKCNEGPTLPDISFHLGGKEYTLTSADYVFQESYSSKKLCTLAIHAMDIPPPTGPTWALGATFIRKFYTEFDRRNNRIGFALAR
The experiment in a line: In vitro renin inhibition, fluorescence of internally quenched peptide substrate. Type of assay: biochemical. To be noted: fluorogenic peptide substrate, pH 7.0, rt. How it is done: The sequence of this peptide corresponds to the sequence of human angiotensinogen. The following test protocol was used. All reactions were carried out in a flat bottom white opaque microtiter plate. A 4 μL aliquot of 400 μM renin substrate (DABCYL-γ-[…]) in 192 μl, assay buffer (50 mM BES, 150 mM NaCl, 0.25 mg/mL bovine serum albumin, pH7.0) was added to 4 μl, of test compound in DMSO at various concentrations ranging from 10 μM to 1 nM final concentrations. Next, 100 μL of trypsin-activated recombinant human renin (final enzyme concentration of 0.2-2 nM) in assay buffer was added, and the solution was mixed by pipetting. The increase in fluorescence at 495 nm (excitation at 340 nm) was measured for 60-360 minutes at rt using a Perkin-Elmer Fusion microplate reader. The slope of a linear portion of the plot of fluorescence-increase as a function of time was then determined, and the rate is used for calculating percent inhibition in relation to uninhibited control. […] (Wang G. T. et al. Anal. Biochem. 1993, 210, 351; Nakamura, N. et al. J. Biochem. (Tokyo) 1991, 109, 741; Murakami, K. et al. Anal Biochem. 1981, 110, 232).

In assay [2] the target is T2, plasma renin activity (PRA) (Homo sapiens, UniProt P00797).
T2 construct: pooled mixed-gender human plasma stabilized with EDTA; from tissue; host or cells: pooled mixed-gender human plasma (EDTA)
T2 sequence (P00797 67-406): T1 sequence (P00797 67-406)
The experiment in a line: In vitro plasma renin activity (PRA) in human plasma, angiotensin I radioimmunoassay. The format is biochemical. To be noted: IC50 in pooled human plasma, 37° C., 90 min. As for the experimental part:
Incubations mixtures contained in the final volume of 250 μL 95.5 mM N,N-bis(2-hydroxyethyl)-2-aminoethanesulfonic acid, pH 7.0, 8 mM EDTA, 0.1 mM neomycin sulfate, 1 mg/mL sodium azide, 1 mM phenylmethanesulfonyl fluoride, 2% DMSO and 87.3% of pooled mixed-gender human plasma stabilized with EDTA. For plasma batches with low PRA (less than 1 ng/ml/hr) ˜2 pM of recombinant human renin was added to achieve PRA of 3-4 ng/ml/hr. The cleavage of endogenous angiotensinogen in plasma was carried out at 37° C. for 90 min and the product angiotensin I was measured by competitive radioimmunoassay using DiaSorin PRA kit.

Assay [3] concerns double transgenic rats engineered to express human renin and human angiotensinogen. The assay is described as follows: In vivo blood pressure by telemetry in double transgenic rats. Also noted: species or system rat. To be noted: 6-week-old dTGRs, oral, 4 consecutive days, dosage of 3-10 mg/kg. How it is done:
Double Transgenic Rats: The efficacy of the renin inhibitors can also be evaluated in vivo in double transgenic rats engineered to express human renin and human angiotensinogen (Bohlender J, Fukamizu A, Lippoldt A, Nomura T, Dietz R, Menard J, Murakami K, Luft F C, Ganten D. High human renin hypertension in transgenic rats. Hypertension 1997, 29, 428-434).
Experiments were conducted in 6-week-old double transgenic rats (dTGRs). The model has been described in detail earlier. […] The human angiotensinogen construct made up the entire human angiotensinogen gene (5 exons and 4 introns), with 1.3 kB of 5′-flanking and 2.4 kB of 3′-flanking sequences. The rats were purchased from RCC Ltd (Füllinsdorf, Switzerland). Radio telemetry transmitters were surgically implanted at 4 weeks of age. The telemetry system provided 24-h recordings of systolic, mean, diastolic arterial pressure (SAP, MAP, DAP, respectively) and heart rate (HR). Beginning on day 42, animals were transferred to telemetry cages. A 24 h telemetry reading was obtained. Rats were then dosed orally on the following 4 consecutive days (days 43-46). The rats were monitored continuously and allowed free access to standard 0.3%-sodium rat chow and drinking water.

Take `CN[C@H](CNC(=O)N1CCC[C@@H]([C@@H](OCCNC(=O)OC)c2cc(F)cc(F)c2)C1)C[C@H]1CCCOC1` [Compound 10, methyl 2-((R)-(3,5-difluorophenyl)((R)-1-((S)-2-(methylamino)-3-((R)-tetrahydro-2H-pyran-3-yl)propylcarbamoyl)piperidin-3-yl)methoxy)ethylcarbamate]: the IC50 in assay [1] and in assay [2] was less than 10 nM in each case.

On to `CCN[C@H](CNC(=O)N1CCC[C@@H]([C@@H](OCCNC(=O)OC)c2cc(Cl)ccc2C)C1)C[C@H]1CCCOC1` [Compound 12, methyl 2-((R)-(5-chloro-2-methylphenyl)((R)-1-((S)-2-(ethylamino)-3-((R)-tetrahydro-2H-pyran-3-yl)propylcarbamoyl)piperidin-3-yl)methoxy)ethylcarbamate], for which, in assay [1], the IC50 was less than 10 nM.

`CN[C@H](CNC(=O)N1CCC[C@@H]([C@H](OCCNC(=O)OC)c2cc(Cl)ccc2C)C1)C[C@H]1CCCOC1` [Compound 11, methyl 2-((S)-(5-chloro-2-methylphenyl)((R)-1-((S)-2-(methylamino)-3-((R)-tetrahydro-2H-pyran-3-yl)propylcarbamoyl)piperidin-3-yl)methoxy)ethylcarbamate]: the IC50 in assay [1] and in assay [2] was less than 10 nM each time.

`CN[C@H](CNC(=O)N1CCC[C@@H]([C@@H](OCCNC(=O)OC)c2cccc(Cl)c2)C1)C[C@H]1CCCOC1` [Compound 7, methyl 2-((R)-(3-chlorophenyl)((R)-1-((S)-2-(methylamino)-3-((R)-tetrahydro-2H-pyran-3-yl)propylcarbamoyl)piperidin-3-yl)methoxy)ethylcarbamate]: in assay [3], the “effect in lowering blood pressures (mean arterial blood pressure, FIG. 2)” value is “significant effect in lowering blood pressures”.

In the case of `CN[C@H](CNC(=O)N1CCC[C@@H]([C@@H](OCCNC(=O)OC)c2cc(F)cc(Cl)c2)C1)C[C@H]1CCCOC1` [Compound 9, methyl 2-((R)-(3-chloro-5-fluorophenyl)((R)-1-((S)-2-(methylamino)-3-((R)-tetrahydro-2H-pyran-3-yl)propylcarbamoyl)piperidin-3-yl)methoxy)ethylcarbamate], the results for the IC50 in assay [1] and in assay [2] were less than 1 nM and less than 10 nM, respectively.

What is called IC50 is the concentration needed to halve the response being measured.
